For series [1] the following is noted: patients, by body surface area; cited from earlier work.
In series [2] the test system is microvascular endothelium (skin, right anterior thigh) of a peripheral artery disease patient. The experiment in a line: Skin colorimetry (a, b, L) before and after application of “μ” in a peripheral artery disease patient on cilostazol. It is filed as in vivo, human. Conditions: 50 mg twice a day; for a dry: baseline (dry). An excerpt: As stated above, one available quantitative color system is the L*a*b* color space or Hunter L/a/b color space, which can be visualized as a rectangular 3D coordinate system. L indicates lightness, a is the red/green coordinate, and b is the yellow/blue coordinate. L can have a value from 0 (black) to 100 (perfect reflection). The a and b axes have no numerical limits. Coordinate a is positive when red, and negative when green. Positive b is yellow, and negative b is blue. Colors can be described numerically using numerical values for L, a, and b. Differences between two colors can be quantified for each of the individual L/a/b values (ΔL, Δa, Δb). Overall differences between two colors can be derived numerically based on the three Δ values.
μ=drug applied before colorimeter and/or spectrophotometer measurements.
L1, a1, b1=Initial measurement.
L2, a2, b2=Measurement with μ applied. L2−L1=ΔLμ(L2 minus L1)=change in lightness and darkness(+=lighter,−=darker) a2−a1=Δaμ(a2 minus a1)=change in red and green(+=redder,−=greener) b2−b1=Δbμ(b2 minus b1)=change in yellow and blue(+=yellower,−=bluer)
When the arteries in the lower extremities become blocked and stenosed with various disease manifestations such as diabetes, hypercholesterolemia there is an increased amount of claudication that occurs with the lower extremities with minimal exertion. Using the current methodology described herein the patient can ascertain if the effects of the various antiplatelet and statin medication's i.e. Lipitor, Crestor are affective in improving the blood flow to the lower extremities. By taking baseline measurements in the lower extremities in particular locations in the legs such as the anterior tibial surface of a right or left leg, medication can be then administered to the patient. After the corresponding 5 half-lives or more have past of drug “δ” the procedure above can be implemented and test run to determine the a, b, L after drug “μ” has been applied. This information can then be used by calculating the measurements with the equation as described above the change in the colorimetric and spectrophotometric variables that can be derived. This will then allow for the ability of the patient in the healthcare provider to know which drug provides the maximum increase in cardio vascular flow to the area based on the information of the homeostasis of the microvascular endothelial system. The more a percentage change of equal to or greater than 10%, the better the flow that would be understood to be an improvement of the peripheral circulation of that area. It will also allow for the proper titration of medication of that particular area. If it seems to improve the flow then, the patient and the healthcare provider may decide to increase the dosage of the medication to have a better benefit. This will allow for an objective determination of how well the patient is responding to the medication while minimizing the side effects of the drugs.
With reference to the table below and to FIG. 19, the table and the graph show a patient with known peripheral artery disease diagnosed by angiogram in the right distal common femoral artery who is having their right anterior thigh continuously evaluated at the same location for the a, b, L calculations after they were initially started on 50 mg of cilostazol twice a day from December 2016 until August 2017. The values of the of a, b, L, are calculated after “μ” was applied which is shown in color red.

The test system of a further series is coronary arteries. Conditions: cited from earlier work.
Another series concerns skin capillaries. The experiment in a line: Topical wet run solution on skin: capillary dilation / red shift. It is filed as in vivo, human. Particulars: applied to skin surface. An excerpt:
The inventor's work has identified previously unknown differences in the reactions of healthy and unhealthy individuals to acetylcholine and other vasodilative substances when applied to the skin. […] Additional efficacious wet run solutions include bradykinin, adenosine, vasopressin, nitroglycerin, sildenafil, serotonin, and thrombin.
“Wet runs” can be performed according to the same general protocol described above for dry runs, which are incorporated herein but will not be fully repeated for brevity. The difference is that for wet runs the skin area being measured with the color detector is wetted with a chemical solution (a.k.a. “Wet run solution”). For example, a solution of one or more chemicals (e.g. acetylcholine and/or thrombin) in water, alcohol, petroleum jelly, or saline. The solution can be applied by wiping or covering the area with a wet gauze pad. The solution may be applied once at the beginning of the procedure before the color detector is positioned on the skin, or applied more than once throughout the procedure. Suspensions of effective chemicals (as opposed to solutions), viscous spreadable chemical applications, lipid-carrier compounds, and potentially non-wet applications of effective chemicals are also contemplated.
Wet runs can also be used as a partial substitute for exercise in a clinical setting, such as for patients who are not physically able to perform stress test exercises. The chemical alone provokes the same general types of differential responses as stress test exercise. For example, in a healthy at-rest individual, acetylcholine alone causes skin capillary dilation, which increases blood perfusion and (because blood is red) causes the skin to become more red. In an unhealthy individual, the acetylcholine alone will cause only low, negligible, or even negative red shift. Thus, the differential reactions to application of acetylcholine (for example) can be used to assess vascular health or the effectiveness of medication even without a stress test.

As to `COc1cccc2c1C(=O)c1c(O)c3c(c(O)c1C2=O)C[C@@](O)(C(=O)CO)C[C@@H]3O[C@H]1C[C@H](N)[C@H](O)[C@H](C)O1` [Adriamycin], the “cumulative dose associated with an increased risk of cardiomyopathy” value in series [1] was “above 550 mg/m2”.

For the compound `O=C1CCc2cc(OCCCCc3nnnn3C3CCCCC3)ccc2N1` [Cilostazol, cilostazol], in series [2] (9 months monitoring), the “effect on blood flow to the microvascular endothelium (a shift after μ)” value is given as “improved blood flow”. Also, the L in series [2] (April 2017) came out at 70.42; in series [2] (August 2017), 65.59; in series [2] (December 2016) it was 65.09; in series [2] (February 2017), 71.68; in series [2] (January 2017), 58.14; in series [2] (July 2017), 71.63. Further, the L in series [2] (June 2017) amounted to 66.06; in series [2] (March 2017), 70.24; in series [2] (May 2017) it was 69.91. In addition, the b in series [2] (April 2017) amounted to 16.14; in series [2] (August 2017), 16.8; in series [2] (December 2016), 15.65; in series [2] (February 2017), 14.67; in series [2] (January 2017), 10.51; in series [2] (July 2017), 14.62. Besides, the b is recorded as 17.75 in series [2] (June 2017), 15.42 in series [2] (March 2017) and 15.64 in series [2] (May 2017). For the same compound, the a dry in series [2] (April 2017) is given as 5.14; in series [2] (August 2017), 5.31; in series [2] (December 2016) it was 4.58; in series [2] (February 2017) it was 4.70; in series [2] (January 2017) it was 4.62; in series [2] (July 2017) it was 5.15. For the same compound, the a dry in series [2] (June 2017) was found to be 5.35; in series [2] (March 2017), 5.12; in series [2] (May 2017), 5.02. For the same compound, the “a wet after “μ”” value in series [2] (April 2017) was 7.33; in series [2] (August 2017) it was 10.32; in series [2] (December 2016) it was 5.35; in series [2] (February 2017), 7.33; in series [2] (January 2017), 6.33; in series [2] (July 2017), 8.95. Moreover, the “a wet after “μ”” value in series [2] (June 2017) is listed as 9.40; in series [2] (March 2017), 7.62; in series [2] (May 2017), 8.06.

Consider `CC(=O)OCC[N+](C)(C)C` [acetylcholine], for which the temporary occlusion entry in the series on coronary arteries (eight arteries with advanced stenosis) is given as “temporary occlusion in five”.

Turning to `Nc1ncnc2c1ncn2[C@@H]1O[C@H](CO)[C@@H](O)[C@H]1O` [adenosine], in the series with skin capillaries, the “efficacy as wet run solution” value is recorded as “efficacious”.

Regarding `O=[N+]([O-])OCC(CO[N+](=O)[O-])O[N+](=O)[O-]` [nitroglycerin], the “efficacy as wet run solution” value with skin capillaries is “efficacious”. In addition, the vessel response entry in the series with coronary arteries (all vessels (normal and diseased)) is given as “All vessels dilated”.

For the compound `NCCc1c[nH]c2ccc(O)cc12` [serotonin], the “efficacy as wet run solution” value with skin capillaries was “efficacious”.

For the compound `CCCc1nn(C)c2c(=O)[nH]c(-c3cc(S(=O)(=O)N4CCN(C)CC4)ccc3OCC)nc12` [sildenafil], the “efficacy as wet run solution” value in the series with skin capillaries is recorded as “efficacious”.

On to `NC(=O)CC[C@@H]1NC(=O)[C@H](Cc2ccccc2)NC(=O)[C@H](Cc2ccc(O)cc2)NC(=O)[C@@H](N)CSSC[C@@H](C(=O)N2CCC[C@H]2C(=O)N[C@@H](CCCN=C(N)N)C(=O)NCC(N)=O)NC(=O)[C@H](CC(N)=O)NC1=O` [vasopressin], for which the “efficacy as wet run solution” value in the series with skin capillaries is “efficacious”.

With thrombin, the “efficacy as wet run solution” value in the series on skin capillaries was “efficacious”.

These data come from US10154813B1, “Method and apparatus for patient skin color monitoring and drug efficacy measurement” (priority 2017, dated 2018).
